Laboratory results reported in patent publication US20260159527A1, “MACROCYCLIC BCL6 DEGRADERS” (DANA-FARBER CANCER INSTITUTE, INC., priority 2022, published 2026).
Like-named read-outs stand apart in the source and are kept apart here.

Tests used:
[1] = 14-membered ring
[2] = from C[C@@H]1CN(c2ncc(Cl)c(Nc3cc(OCC(=O)O)c4c(c3)[nH]c(=O)n4C)n2)C[C@H](N)C1(F)F; amide bond; 14-membered ring; HATU/DIEA; DMF; 141.0 mM; 20.0 °C; 2.0 h
[3] = snar bond, 14-membered ring, DIEA, 80.0 °C, 12.0 h
[4] = biological target: T1, BCL6 (Homo sapiens, UniProt P41182); assay: HiBiT cellular degradation assay (Promega) in Su-DHL-4 cells; type: cell-based; conditions: concentration to reach 50% degradation; endogenous BCL6 tagged with SmBiT in Su-DHL-4 cells; 24 hr of compound treatment; relative to DMSO control
T1 construct: Endogenous BCL6 was tagged with the 11-amino acid SmBiT through CRISPR/Cas9 gene editing; endogenous in cells; host or cells: Su-DHL-4 cells, CRISPR/Cas9 knock-in single cell clone
Description: DC50 (concentration to reach 50% degradation) values were determined from a cellular degradation assay (HiBiT, Promega™) in Su-DHL-4 cells (Table 1). Endogenous BCL6 was tagged with the 11-amino acid SmBiT through CRISPR/Cas9 gene editing and single cell clone selection. After 24 hr of compound treatment, cells were lysed and incubated with LgBiT protein to reconstitute intact nanoluciferase. Substrate was then added and relative luciferase units were measured. Degradation levels for each treatment were taken as a percentage compared to the control, 100% DMSO (Prism).

| SMILES | DC50 [4] [nM] | also measured |
| --- | --- | --- |
| CC1CN2CC(NC(=O)COc3cc(cc4[nH]c(=O)n(C)c34)Nc3nc2ncc3F)C1(F)F (centres unmarked) | – | ring closure, isolated yield ([1]; from CC1CN(c2ncc(F)c(Nc3cc(OCC(=O)O)c4c(c3)[nH]c(=O)n4C)n2)CC(N)C1(F)F, amide bond, HATU/DIEA, DMF, 148.0 mM, 15.0 °C, 2.0 h): 74% |
| C[C@@H]1CN2C[C@H](NC(=O)COc3cc(cc4[nH]c(=O)n(C)c34)Nc3nc2ncc3Cl)C1(F)F | – | ring closure, crude yield [2]: 59% |
| C[C@@H]1C[C@H]2CN(C1)c1ncc(Cl)c(n1)Nc1cc(c3c(c1)[nH]c(=O)n3C)OCCN2 | – | ring closure, isolated yield ([1]; from C[C@@H]1C[C@H](N)CN(c2ncc(Cl)c(Nc3cc(OCCCl)c4c(c3)[nH]c(=O)n4C)n2)C1, amine bond, K2CO3/NaI, DMF, 11.5 mM, 100.0 °C, 36.0 h): 42% |
| C[C@@H]1C[C@H]2CN(C1)c1ncc(Cl)c(n1)Nc1cc(c3c(c1)[nH]c(=O)n3C)OCCO2 | – | ring closure, isolated yield ([1]; from C[C@H]1CNC[C@@H](OCCOc2cc(Nc3nc(Cl)ncc3Cl)cc3[nH]c(=O)n(C)c23)C1, snar bond, DIEA, DMSO, 38.3 mM, 80.0 °C, 12.0 h): 12% |
| C[C@H]1CN2C[C@@H](OCCOc3cc(cc4[nH]c(=O)n(C)c34)Nc3nc2ncc3Cl)C1(F)F | – | ring closure, isolated yield ([1]; from C[C@H]1CNC[C@@H](OCCOc2cc(Nc3nc(Cl)ncc3Cl)cc3[nH]c(=O)n(C)c23)C1(F)F, snar bond, DIEA, DMSO, 49.7 mM, 80.0 °C, 24.0 h): 30% |
| C[C@H]1C[C@@H]2CN(C1)c1ncc(Cl)c(n1)Nc1cc(c3c(c1)[nH]c(=O)n3C)OCCO2 | – | ring closure, isolated yield ([1]; from C[C@@H]1CNC[C@H](OCCOc2cc(Nc3nc(Cl)ncc3Cl)cc3[nH]c(=O)n(C)c23)C1, snar bond, DIEA, DMSO, 18.4 mM, 80.0 °C, 12.0 h): 13% |
| C[C@H]1CN2C[C@@H](NCCOc3cc(cc4[nH]c(=O)n(C)c34)Nc3nc2ncc3F)C1(F)F [Compound 37] | > 400 | – |
| CNC(=O)COc1cc2cc3ccc2n(c1=O)CCCCO[C@H]1C[C@@H](C)CN(C1)c1ncc(Cl)c(n1)N3 [Compound A, reference compound] | > 400 | – |
| CNC(=O)COc1cc2cc3ccc2n(c1=O)CCCCO[C@@H]1C[C@H](C)CN(C1)c1ncc(Cl)c(n1)N3 [Compound B, reference compound] | > 400 | – |

Second part, led by results:

| DC50 [4] [nM] | SMILES | also measured |
| --- | --- | --- |
| 0.68 | CNC(=O)COc1cc2cc3cc(c2n(C)c1=O)OCCC[C@H]1CN(C[C@@H](C)C1(F)F)c1ncc(Cl)c(n1)N3 [Compound 4, 2-(((1^3S, 1^5R)-2^5-chloro-1^4,1^4-difluoro-13,41-dimethyl-4^2-oxo-4^1,4^2-dihydro-5-oxa-3-aza-4(6,8)-quinolina-2(2,4)-pyrimidina-1 (1,3)-piperidinacyclooctaphane-4^3-yl)oxy)-N-methylacetamide] | ring closure, yield after HPLC ([3]; from CNC(=O)COc1cc2cc(Nc3nc(Cl)ncc3Cl)cc(OCCC[C@H]3CNC[C@@H](C)C3(F)F)c2n(C)c1=O, DMF, 140.0 mM): 12% |
| 0.61 | CNC(=O)COc1cc2cc3cc(c2n(C)c1=O)OCCO[C@@H]1C[C@H](C)CN(C1)c1ncc(Cl)c(n1)N3 [Compound 6, 2-(((1^3R, 1^5S)-2^5-chloro-1^5,4^1-dimethyl-4^2-oxo-4^1, 4^2-dihydro-5,8-dioxa-3-aza-4(6.8)-quinolina-2(2,4)-pyrimidina-1 (1,3)-piperidinacyclooctaphane-4^3-yl)oxy)-N-methylacetamide] | ring closure, yield after HPLC ([3]; from CNC(=O)COc1cc2cc(Nc3nc(Cl)ncc3Cl)cc(OCCO[C@H]3CNC[C@@H](C)C3)c2n(C)c1=O, DMSO, 36.0 mM): 12% |
| 72 | C[C@@H]1CN2C[C@H](CCCOc3cc(cc4[nH]c(=O)n(C)c34)Nc3nc2ncc3Cl)C1(F)F [Compound 26, (1^3S,1^3R)-2^5-chloro-1^4,1^4-difluoro-1^5,4^3-dimethyl-4^2,4^3-dihydro-4 H-5-oxa-3-aza-4(6,4)-benzo[d]imidazola-2(2,4)-pyrimidina-1 (1,3)-piperidinacyclooctaphan-4^2-one] | ring closure, isolated yield ([1]; from C[C@@H]1CNC[C@H](CCCOc2cc(Nc3nc(Cl)ncc3Cl)cc3[nH]c(=O)n(C)c23)C1(F)F, snar bond, DIEA, DMSO, 27.1 mM, 80.0 °C, 12.0 h): 64% |
| > 400 | C[C@H]1CN2C[C@@H](CCCOc3cc(cc4[nH]c(=O)n(C)c34)Nc3nc2ncc3Cl)C1(F)F [Compound 27, (1^3R, 1^5S)-2^5-chloro-1^4,1^4-difluoro-1^5,4^3-dimethyl-4^2,4^3-dihydro-4^1H-5-oxa-3-aza-4(6,4)-benzo[d]imidazola-2(2,4)-pyrimidina-1 (1,3)-piperidinacyclooctaphan-4^2-one] | ring closure, isolated yield ([1]; from C[C@H]1CNC[C@@H](CCCOc2cc(Nc3nc(Cl)ncc3Cl)cc3[nH]c(=O)n(C)c23)C1(F)F, snar bond, DIEA, DMSO, 40.6 mM, 80.0 °C, 12.0 h): 63% |
| > 400 | C[C@H]1CN2C[C@@H](NCCOc3cc(cc4c3n(C)c(=O)n4CCC(C)(C)O)Nc3nc2ncc3Cl)C1(F)F [Compound 35, (1^3R, 1^5S)-1^4,1^4,2^5-Trifluoro-4^1-(3-hydroxy-3-methylbutyl)-1^5,4^3-dimethyl-4^2,4^3-dihydro-4^1H-5-oxa-3,8-diaza-4(6,4)-benzo[d]imidazola-2(2,4)-pyrimidina-1 (1,3)-piperidinacyclooctaphan-4^2-one] | – |
| 14.2 | C[C@@H]1CN2C[C@H](NCCOc3cc(cc4[nH]c(=O)n(C)c34)Nc3nc2ncc3F)C1(F)F [Compound 38] | – |
| 96.7 | C[C@@H]1CN2C[C@H](NCCOc3cc(cc4c3n(C)c(=O)n4CCC(C)(C)O)Nc3ccnc2n3)C1(F)F [Compound 39] | – |
| 3.7 | C[C@@H]1CN2C[C@H](NCCOc3cc(cc4c3n(C)c(=O)n4CCC(C)(O)CO)Nc3nc2ncc3Cl)C1(F)F (some centres unmarked) [Compound 40] | – |
| 1 | C[C@@H]1CN2C[C@H](NCCOc3cc(cc4c3n(C)c(=O)n4C[C@@H](O)C(C)(C)O)Nc3nc2ncc3Cl)C1(F)F [Compound 41] | – |
| 8.5 | C[C@@H]1CN2C[C@H](NCCOc3cc(cc4c3n(C)c(=O)n4C[C@H](O)C(C)(C)O)Nc3nc2ncc3Cl)C1(F)F [Compound 42] | – |
| 11.3 | C[C@@H]1CN2C[C@H](NCCOc3cc(cc4c3n(C)c(=O)n4CC[S@](C)(=N)=O)Nc3nc2ncc3Cl)C1(F)F [Compound 43] | – |
| 18.9 | C[C@@H]1CN2C[C@H](NCCOc3cc(cc4c3n(C)c(=O)n4CC[S@@](C)(=N)=O)Nc3nc2ncc3Cl)C1(F)F [Compound 44] | – |
| 8.7 | C[C@@H]1CN2C[C@H](NCCOc3cc(cc4c3n(C)c(=O)n4CCC3(O)COC3)Nc3nc2ncc3Cl)C1(F)F [Compound 45] | – |
